From US20160297768A1, “NOVEL IMIDAZOLE DERIVATIVES AND THERAPEUTIC USE THEREOF” (INDUSTRY-ACA-DEMIC COORPERATION FOUNDATION, YONSEI …, priority 2013, published 2016)

Experiments:
[1] = test system: A549 cells; assay: Apoptotic activity by MTT analysis, A549 cells; format: cell-based; conditions: 15 μM of the compound, mean±standard deviation; for cytotoxicity at 15 µM: Homo sapiens, A549, 12 h, read-out: Apoptosis (%) A549 cells
Procedure: (§1) Lung cancer cells (A549), colorectal cancer cells (HCT116), HeLa cells, liver cancer cells (HepG2), T-cell leukemia cells (Jurkat), myeloid leukemia cells (K562), breast cancer cells (MCF-7 and MDA-MB-231) and myelocytic leukemia cells ([…]) were obtained from the American Type Culture Collection (ATCC), and cultured in 10% fetal bovine serum (FBS), 50 units/mL penicillin and 50 units/mL streptomycin-added RPMI 1640 (Invitrogen). The cells were maintained in a humidified 37° C., 5% CO2 atmosphere. The anticancer activity was detected by MTT analysis. Each type of cancer cells were plated in triplicate in a 96-well microtiter plate, and cultured at 37° C. for 24 hours. The cells were treated with each of the compounds prepared above at 37° C. for 12 hours. After the culturing of the cells, 10 μL of an MTT reagent ((3-[4,5-dimethyl-2-thiazolyl]-2,5-diphenyl-2H-tetrazoliumbromide) was added to each well, and cultured for 3.5 hours. The absorbance of each sample was detected using a UV microplate reader (SpectraMax 340PC 384, Molecular Devices) at 570 nm. The detection results were measured as a mean value. The effect of each compound on apoptosis is shown in Table 1.
(§2) The A549 and HeLa cells were treated with 15 μM of the compound for 12 hours. The apoptosis was detected using MTT (mean±standard deviation).

[2] = test system: HeLa cells; assay: Apoptotic activity by MTT analysis, HeLa cells; format: cell-based; conditions: 15 μM of the compound, mean±standard deviation; for cytotoxicity at 15 µM: Homo sapiens, HeLa, 12 h, read-out: Apoptosis (%) HeLa cells
Procedure: as §1, §2

Row | SMILES | cytotoxicity at 15 µM [1] [%] | cytotoxicity at 15 µM [2] [%] | Apoptosis (%) A549 cells ([1]; 12 hours) [%] | Apoptosis (%) HeLa cells ([2]; 12 hours) [%]
1 | COc1ccc(-c2nc(-c3cc(C(F)(F)F)cc(C(F)(F)F)c3)n(CCOCCOCCN)c2-c2ccc(OC)cc2)cc1 [Example 187, 2-(2-(2-(2-(3,5-bis(trifluoromethyl)phenyl)-4,5-bis(4-methoxyphenyl)-1H-imidazole-1-yl)ethoxy)ethoxy)ethaneamine] | 31 ± 0.29 | 12 ± 0.92 |  | 
2 | NCCOCCOCCNC(=O)c1ccc(Cn2c(-c3cc(C(F)(F)F)cc(C(F)(F)F)c3)nc(-c3ccc(F)cc3)c2-c2ccc(F)cc2)cc1 [Example 188, N-(2-(2-(2-aminoethoxy)ethoxy)ethyl)-4-((2-(3,5-bis(trifluoromethyl)phenyl)-4,5-bis(4-fluorophenyl)-1H-imidazole-1-yl)methyl)benzamide] | 12 ± 0.24 | 19 ± 0.65 |  | 
3 | NCCOCCOCCNC(=O)c1ccc(Cn2c(-c3cc(C(F)(F)F)cc(C(F)(F)F)c3)nc(-c3ccc(Cl)cc3)c2-c2ccc(Cl)cc2)cc1 [Example 189, N-(2-(2-(2-aminoethoxy)ethoxy)ethyl)-4-((2-(3,5-bis(trifluoromethyl)phenyl)-4,5-bis(4-chlorophenyl)-1H-imidazole-1-yl)methyl)benzamide] |  |  | 81 ± 0.45 | 86 ± 0.64
4 | COc1ccc(-c2nc(-c3cc(C(F)(F)F)cc(C(F)(F)F)c3)n(Cc3ccc(C(=O)NCCOCCN)cc3)c2-c2ccc(OC)cc2)cc1 [Example 190, N-(2-(2-aminoethoxy)ethyl)-4-((2-(3,5-bis(trifluoromethyl)phenyl)-4,5-bis(4-methoxyphenyl)-1H-imidazole-1-yl)methyl)benzamide] | 72 ± 2.88 | 87 ± 0.62 |  | 
5 | COc1ccc(-c2nc(-c3cc(C(F)(F)F)cc(C(F)(F)F)c3)n(Cc3ccc(C(=O)NCCCCCCN)cc3)c2-c2ccc(OC)cc2)cc1 [Example 191, N-(6-aminohexyl)-4-((2-(3,5-bis(trifluoromethyl)phenyl)-4,5-bis(4-methoxyphenyl)-1H-imidazole-1-yl)methyl)benzamide] | 78 ± 2.43 | 94 ± 1.64 |  | 
6 | COc1ccc(-c2nc(-c3cc(C(F)(F)F)cc(C(F)(F)F)c3)n(Cc3ccc(C(=O)NCCCCCCCN)cc3)c2-c2ccc(OC)cc2)cc1 [Example 192, N-(7-aminoheptyl)-4-((2-(3,5-bis(trifluoromethyl)phenyl)-4,5-bis(4-methoxyphenyl)-1H-imidazole-1-yl)methyl)benzamide] | 80 ± 1.78 | 93 ± 0.56 |  | 
7 | COc1ccc(-c2nc(-c3cc(C(F)(F)F)cc(C(F)(F)F)c3)n(Cc3ccc(C(=O)NCCCCCCCCN)cc3)c2-c2ccc(OC)cc2)cc1 [Example 193] | 77 ± 1.65 | 94 ± 1.02 |  | 
8 | COc1ccc(-c2nc(-c3cc(C(F)(F)F)cc(C(F)(F)F)c3)n(Cc3ccc(C(=O)NCCCCCCCCCN)cc3)c2-c2ccc(OC)cc2)cc1 [Example 194] | 80 ± 1.33 | 84 ± 2.01 |  | 
9 | COc1ccc(-c2nc(-c3cc(C(F)(F)F)cc(C(F)(F)F)c3)n(Cc3ccc(C(=O)NCCOCCOCCO)cc3)c2-c2ccc(OC)cc2)cc1 [Example 195, 4-((2-(3,5-bis(trifluoromethyl)phenyl)-4,5-bis(4-methoxyphenyl)-1H-imidazole-1-yl)methyl)-N-(2-(2-(2-hydroxyethoxy)ethoxy)ethyl)benzamide] | 86 ± 1.29 | 96 ± 0.98 |  | 
10 | COc1ccc(-c2nc(-c3cc(C(F)(F)F)cc(C(F)(F)F)c3)n(Cc3ccc(C(=O)NCCOCCCOCCN)cc3)c2-c2ccc(OC)cc2)cc1 [Example 196, N-(2-(3-(2-aminoethoxy)propoxy)ethyl)-4-((2-(3,5-bis(trifluoromethyl)phenyl)-4,5-bis(4-methoxyphenyl)-1H-imidazole-1-yl)methyl)benzamide] | 0 | 0 |  | 
11 | COc1ccc(-c2nc(-c3cc(C(F)(F)F)cc(C(F)(F)F)c3)n(Cc3ccc(C(=O)NCCCCCCCCCCN)cc3)c2-c2ccc(OC)cc2)cc1 [Example 197, N-(10-aminodecyl)-4-((2-(3,5-bis(trifluoromethyl)phenyl)-4,5-bis(4-methoxyphenyl)-1H-imidazole-1-yl)methyl)benzamide] | 96 ± 0.54 | 97 ± 1.22 |  | 
12 | COc1ccc(-c2nc(-c3cc(C(F)(F)F)cc(C(F)(F)F)c3)n(Cc3ccc(C(=O)NCCCOCCOCCCN)cc3)c2-c2ccc(OC)cc2)cc1 [Example 198, N-(3-(2-(3-aminopropoxy)ethoxy)propyl)-4-((2-(3,5-bis(trifluoromethyl)phenyl)-4,5-bis(4-methoxyphenyl)-1H-imidazole-1-yl)methyl)benzamide] | 80 ± 1.43 | 83 ± 1.07 |  | 
13 | COc1ccc(-c2nc(-c3cc(C(F)(F)F)cc(C(F)(F)F)c3)n(Cc3ccc(C(=O)NCCCCCCCCCCCN)cc3)c2-c2ccc(OC)cc2)cc1 [Example 199, N-(11-aminoundecyl)-4-((2-(3,5-bis(trifluoromethyl)phenyl)-4,5-bis(4-methoxyphenyl)-1H-imidazole-1-yl)methyl)benzamide] | 89 ± 1.63 | 93 ± 1.72 |  | 
14 | COc1ccc(-c2nc(-c3cc(C(F)(F)F)cc(C(F)(F)F)c3)n(Cc3ccc(C(=O)NCCOCCOCCOCCN)cc3)c2-c2ccc(OC)cc2)cc1 [Example 200, N-(2-(2-(2-(2-aminoethoxy)ethoxy)ethoxy)ethyl)-4-((2-(3,5-bis(trifluoromethyl)phenyl)-4,5-bis(4-methoxyphenyl)-1H-imidazole-1-yl)methyl)benzamide] | 85 ± 1.44 | 87 ± 0.78 |  | 
